Molecules are shown by their SMILES. Read-outs that look alike come from different tables or passages of the source.

These results are taken from US4839374A, “4-((Bicyclic heterocyclyl)-methyl and -hetero)-piperidines” (Janssen Pharmaceutica, N.V., priority 1987, dated 1989).

The test system of assay [1] is compound 48/80-induced lethality. The assay can be described thus: Protection of rats from compound 48/80-induced lethality. The class given is in vivo, rats of an inbred Wistar strain. The following applies: protection of 50% of animals, survival after 4 hours; for ED50: Rattus norvegicus, 4 h, read-out: Compound 48/80 lethality test in rats ED50, s.c. or p.o. 1 h before compound 48/80 0.5 mg/kg i.v. In a few lines: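 Male inbred Wistar rats (240-260 g), starved overnight, dosed subcutaneously or orally with compound or 0.9% NaCl before compound 48/80 challenge. Survival at 4 hours counted as protection. ED50 in mg/kg is the dose protecting 50% of animals from lethality.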

A further assay relates to effects of serotonin. The assay can be described thus: Antagonistic activity on the effects of serotonin in the gastric lesion test (lesions induced by compound 48/80). The following applies: for ED50: Rattus norvegicus, po, read-out: gastric lesion test ED50. In kind it is in vivo, rats of a Wistar inbred strain. The protocol:
Antagonistic activity on the effects of serotonin in the gastric lesion test.
The shock, followed by dead, can be avoided if the rats are pretreated with a classical H 1 antagonist.
Male rats of a Wistar inbred strain, weighing 220-250 g, were starved overnight, water being available ad libitum. The test compounds were administered orally as a solution or as a suspension in aqueous medium. A control rat and a "blank" rat received the test compound. One hour later 5-[4-(diphenylmethyl)1-piperazinylmethyl]-1-methyl-1H-benzimidazole-2-methanol was administered subcutaneously to all rats at the dose of 2.5 mg/kg. […] Four hours after the intravenous injection of compound 48/80, the rats were decapitated and the stomachs were removed. Subsequently the stomachs were inspected for distension and contents (blood, fluid, food) and thoroughly rinsed. The macroscopic lesions were scored from 0 to +++, 0 corresponding to complete absence of visible lesions and the highest score corresponding to reddish rough patches covering more than half the glandular area.
The second column of tables 1-4 show for a number of compounds of formula (I) the doses (in mg/kg body weight) at which the distension of the stomach as well as the lesions in the glandular area of the stomach are completely absent in 50% of the test rats (ED50 -value).

[2] abbreviates: compound 48/80 1 mg/kg i.v., distension and lesions of stomach completely absent in 50% of rats.

Regarding `c1cnc(NCCN2CCC(Cc3nc4ccccc4n3Cc3ccco3)CC2)nc1` [Compound 334], the ED50 came to 0.005 mg/kg in assay [1] and 0.31 mg/kg with effects of serotonin (setting [2]). For `CC(C)NC(=O)CN1CCC(Cc2nc3cccnc3n2Cc2ccc(F)cc2)CC1` [Compound 128] the same measures were 0.16 mg/kg and 0.63 mg/kg. For `Cn1c(O)nc2c(NCCN3CCC(Cc4nc5ccccc5n4Cc4ccc(F)cc4)CC3)ncnc21` [Compound 371], in that order: 0.16 mg/kg and 0.63 mg/kg. For `O=C(NCCN1CCC(Cc2nc3ccccc3n2Cc2ccc(F)cc2)CC1)c1ccsc1` [Compound 431], in that order: 0.04 mg/kg and 0.005 mg/kg.

Regarding `O=C(NCCN1CCC(Cc2nc3ccccc3n2Cc2ccc(F)cc2)CC1)c1cccs1` [Compound 443, N-[2-[4-[[1-[(4-fluorophenyl)methyl]-1H-benzimidazol-2-yl]methyl]-1-piperidinyl]ethyl]-2-thiophenecarboxamide], the ED50 was determined as 0.02 mg/kg in assay [1] and 0.16 mg/kg in the assay with effects of serotonin (setting [2]). As for `c1cnc(NCCN2CCC(Cc3nc4cccnc4n3Cc3cccs3)CC2)nc1` [Compound 342], the ED50 worked out at 0.02 mg/kg in assay [1] and 0.16 mg/kg in the assay on effects of serotonin (setting [2]).

For the molecule `Fc1ccc(Cn2c(CC3CCN(CCNc4ncccn4)CC3)nc3ccncc32)cc1` [Compound 351, N-[2-[4-[[3-[(4-fluorophenyl)methyl]-3H-imidazo[4,5-c]pyridin-2-yl]methyl]-1-piperdinyl]-ethyl]-2-pyrimidinamine], the figures for the ED50 (in assay [1]; in the assay with effects of serotonin) were 0.02 mg/kg and 0.08 mg/kg, respectively.

`O=C1OCCN1CCN1CCC(Cc2nc3ccccc3n2Cc2ccc(F)cc2)CC1` [Compound 385, 3-[2-[4-[[1-[(4-fluorophenyl)methyl]-1H-benzimidazol-2-yl]methyl]-1-piperidinyl]ethyl]2-oxazolidinone]: the ED50 in assay [1] came out at 0.01 mg/kg; in the assay on effects of serotonin, 0.08 mg/kg. For `O=C(CCCN1CCC(Cc2nc3cccnc3n2Cc2ccc(F)cc2)CC1)c1ccc(F)cc1` [Compound 228], the “Compound 48/80 lethality test in rats ED50” value in assay [1] (s.c. or p.o. 1 h before compound 48/80 0.5 mg/kg i.v., 0.5 mg/kg, 240 min) was determined as 0.04 mg/kg body weight. For the same molecule, the “gastric lesion test ED50” value in the assay with effects of serotonin (oral, compound 48/80 1 mg/kg i.v., distension and lesions of stomach completely absent in 50% of rats, 1 mg/kg) amounted to 0.01 mg/kg body weight.

As for `Cc1ncsc1CCN1CCC(Cc2nc3ccccc3n2Cc2ccc(F)cc2)CC1` [Compound 182], the results for the ED50 (in assay [1]; with effects of serotonin (setting [2])) were 0.04 mg/kg and 0.63 mg/kg, respectively. For `Cc1nc2ccccn2c(=O)c1CCN1CCC(Sc2nc3ccccc3n2Cc2ccc(F)cc2)CC1` [Compound 244, 3-[2-[4-[[1-[(4-fluorophenyl)methyl]-1H-benzimidazol-2-yl]thio]-1-piperidinyl]-ethyl]-2-methyl-4H-pyrido[1,2-a]pyrimidin-4-one], in that order: 0.16 mg/kg and 0.31 mg/kg. For `CN1CCC(Cc2nc3ccccc3n2Cc2ccc(F)cc2)CC1` [Compound 82] the same measures were 0.005 mg/kg and 0.63 mg/kg. `Oc1ccc(CCN2CCC(Cc3nc4ccccc4n3Cc3ccc(F)cc3)CC2)cc1` [Compound 504, 4-[2-[4-[[1-[(4-fluorophenyl)methyl]-1H-benzimidazol-2-yl]methyl]-1-piperidinyl]ethyl]phenol]: the figures for the ED50 (in assay [1]; with effects of serotonin (setting [2])) were 0.08 mg/kg and 0.63 mg/kg, respectively.

Take `c1csc(Cn2c(CC3CCN(CCNc4nc5cnccc5[nH]4)CC3)nc3ccccc32)c1` [Compound 416, N-[2-[4-[[1-(2-thienylmethyl)-1H-benzimidazol-2-yl]methyl]-1-piperidinyl]ethyl]-1H-imidazo[4,5-c]pyridin-2-amine]: the ED50 (in assay [1]; in the assay with effects of serotonin) was 0.04 mg/kg throughout.

Consider `Cc1nc2n(c(=O)c1CCN1CCC(Oc3nc4ccccc4n3Cc3ccc(F)cc3)CC1)CCCC2` [Compound 264], for which the ED50 in assay [1] amounted to 0.04 mg/kg; with effects of serotonin (setting [2]) it was 0.63 mg/kg. For `O=c1cc[nH]c(=O)n1CCN1CCC(Cc2nc3ccccc3n2Cc2ccc(F)cc2)CC1` [Compound 164], in that order: 0.02 mg/kg and 0.02 mg/kg. For `Fc1ccc(Cn2c(CC3CCN(C4CCCCC4)CC3)nc3ccccc32)cc1` [Compound 99], in that order: 0.04 mg/kg and 0.31 mg/kg.

Turning to `CCOCCN1CCC(Cc2nc3ccccc3n2Cc2ccc(F)cc2)CC1` [Compound 133], the ED50 in assay [1] amounted to 0.02 mg/kg; with effects of serotonin (setting [2]) it was 0.16 mg/kg. Consider `O=c1[nH]c2ccccc2c(=O)n1CCN1CCC(Cc2nc3cccnc3n2Cc2ccc(F)cc2)CC1` [Compound 224], for which the ED50 in assay [1] is 0.04 mg/kg; with effects of serotonin, 0.08 mg/kg. On to `Fc1ccc(Cn2c(CC3CCN(CCNc4ncc[nH]4)CC3)nc3ccccc32)cc1` [Compound 453, 4-[[1-[(4-fluorophenyl)methyl]-1H-benzimidazol-2-yl]methyl]-N-(1H-imidazol-2-yl)-1-piperidineethanamine], for which the results for the ED50 (in assay [1]; with effects of serotonin (setting [2])) were 0.04 mg/kg and 0.02 mg/kg, respectively. For `Fc1ccc(Cn2c(CC3CCN(CCNc4ncccn4)CC3)nc3cccnc32)cc1` [Compound 376, N-[2-[4-[[3-[(4-fluorophenyl)methyl]-3H-imidazo[4,5-b]pyridin-2-yl]methyl]-1-piperidinyl]ethyl]-2-pyrimidinamine], in that order: 0.02 mg/kg and 0.63 mg/kg.

With `CN(CCN1CCC(Cc2nc3ccccc3n2Cc2ccc(F)cc2)CC1)c1ncccn1` [Compound 514, N-[2-[4-[[1-[(4-fluorophenyl)methyl]-1H-benzimidazol-2-yl]methyl]-1-piperidinyl]ethyl]-N-methyl-2-pyrimidinamine], the values for the ED50 (in assay [1]; with effects of serotonin (setting [2])) were 0.02 mg/kg and 0.63 mg/kg, respectively. Regarding `CNc1ccccc1C(=O)NCCN1CCC(Cc2nc3ccccc3n2Cc2ccc(F)cc2)CC1` [Compound 467, N-[2-[4-[[1-[(4-fluorophenyl)methyl]-1H-benzimidazol-2-yl]methyl]-1-piperidinyl]ethyl]-2-(methylamino)benzamide], the ED50 in assay [1] was determined as 0.04 mg/kg; with effects of serotonin, 0.08 mg/kg. As for `Cc1csc(NCCN2CCC(Cc3nc4ccccc4n3Cc3ccc(F)cc3)CC2)n1` [Compound 456, 4-[(1-[(4-fluorophenyl)methyl]-1H-benzimidazol-2-yl]methyl]-N-(4-methyl-2-thiazolyl)-1-piperidineethanamine], the ED50 in assay [1] was found to be 0.01 mg/kg; in the assay with effects of serotonin (setting [2]) it was 0.63 mg/kg. For `Nc1ccccc1C(=O)NCCN1CCC(Cc2nc3ccncc3n2Cc2ccc(F)cc2)CC1` [Compound 477, 2-amino-N-[2-[4-[[3-[(4-fluorophenyl)methyl]-3H-imidazo[4,5-c]pyridin-2-yl]-methyl]-1-piperidinyl]-ethyl]benzamide], in that order: 0.02 mg/kg and 0.63 mg/kg.

With `c1coc(Cn2c(CC3CCN(CCNc4nccs4)CC3)nc3ccccc32)c1` [Compound 335], the results for the ED50 (in assay [1]; in the assay with effects of serotonin (setting [2])) were 0.02 mg/kg and 0.16 mg/kg, respectively. For `Fc1ccc(Cn2c(CC3CCN(CCNc4nc5cccnc5s4)CC3)nc3ccccc32)cc1` [Compound 330, N-[2-[4-[[1-[(4-fluorophenyl)methyl]-1H-benzimidazol-2-yl]methyl]-1-piperidinyl]ethyl]thiazolo[5,4-b]pyridin-2-amine], the figures for the ED50 (in assay [1]; with effects of serotonin (setting [2])) were 0.08 mg/kg and 0.16 mg/kg, respectively. In the case of `Cc1nc2scc(C)n2c(=O)c1CCN1CCC(Cc2nc3ccccc3n2Cc2ccc(F)cc2)CC1` [Compound 219], the figures for the ED50 (in assay [1]; with effects of serotonin (setting [2])) were 0.08 mg/kg and 0.63 mg/kg, respectively.

Consider `CCNC(=O)NCCN1CCC(Cc2nc3ccccc3n2Cc2ccc(F)cc2)CC1` [Compound 430, N-ethyl-N'-[2-[4-[[1-[(4-fluorophenyl)methyl]-1H-benzimidazol-2-yl]methyl]-1-piperidinyl]ethyl]urea], for which the ED50 is 0.01 mg/kg in assay [1] and 0.005 mg/kg in the assay on effects of serotonin (setting [2]). As for `Oc1nc2cncnc2n1CCN1CCC(Cc2nc3ccccc3n2Cc2ccc(F)cc2)CC1` [Compound 502, 9-[2-[4-[[1-[(4-fluorophenyl)methyl]-1H-benzimidazol-2-yl]methyl]-1-piperidinyl]ethyl]-9H-purin-8-ol], the ED50 in assay [1] is 0.08 mg/kg; with effects of serotonin (setting [2]) it was 0.16 mg/kg.

As for `Cc1ccc(Cn2c(CC3CCN(C)CC3)nc3ccccc32)cc1` [Compound 81, 1-[(4-methylphenyl)methyl]-2-[(1-methyl-4-piperidinyl)methyl]-1H-benzimidazole], in assay [1], the ED50 was 0.08 mg/kg. The same measure, in the same setting: the result for `Fc1ccc(Cn2c(OC3CCN(CCOc4ncccn4)CC3)nc3ccccc32)cc1` [Compound 390, 1-[(4-fluorophenyl)methyl]-2-[[1-[2-(2-pyrimidinyloxy)ethyl]-4-piperidinyl]oxy]-1H-benzimidazole] reads 0.04 mg/kg; that for `O=c1[nH]c2ccccc2c(=O)n1CCN1CCC(Cc2nc3cccnc3n2Cc2ccco2)CC1` [Compound 171], 0.08 mg/kg. On to `c1csc(Cn2c(CC3CCN(CCNc4nccs4)CC3)nc3cccnc32)c1` [Compound 361], for which the ED50 in assay [1] was found to be 0.02 mg/kg. As to `Cn1c(=O)c2c(ncn2CCN2CCC(Cc3nc4cccnc4n3Cc3ccco3)CC2)n(C)c1=O` [Compound 176], the ED50 in assay [1] was 0.04 mg/kg.
